# In patent US7101664B2, “Bioactive oligopeptides” (Polymun Scientific Immunbiologische Forschung GmbH, priority 1999, dated 2006):
# Read-outs that look alike come from different tables or passages of the source. Where a SMILES comes first, the peptide text is derived from it.
# Experiments:
# [1] = tested on: Mouse hybridoma CAU 96; assay: Batch T-flask culture of hybridoma with oligopeptide supplements (Example 2); assay type: cell-based; conditions: for growth stimulating effect on the hybridoma cell line (in words): Tables 3 to 7
# From the text: Cells: Mouse hybridoma CAU 96 producing monoclonal lgG2a
# Starting viable cell density is 310000 (3.1*10^5) cells per ml.
# [2] = tested on: Mouse hybridoma CAU 96; assay: Amino acid analysis of the culture medium during cultivation of hybridoma cells with tetrapeptide
# Procedure: (§1) Cells: Mouse hybridoma CAU 96 producing monoclonal lgG2a antibody.
# (§2) Medium: DMEM/F-12/RPMI 1640 (2:1:1) supplemented with Basal Medium Eagle (BME) amino acids, 2.0 mM glutamine, 15 mM HEPES (N-2-Hydroxyethylpiperazine-N′-2-ethanesulfonic acid), 2.0 g/l sodium bicarbonate and 0.4 mM ferric citrate.
# (§3) Culture mode: 25 cm^3 T-flasks (Nunc) culture volume 6.0 ml, placed at 37° C. in an incubator with 5% CO^2; starting viable cell density is 3.1×10^5 cells per ml.
# (§4) Preparation of samples of amino acid analysis: Cells are removed by low-speed centrifugation and macromolecular components are removed by ultrafiltration.
# [3] = tested on: Mouse hybridoma CAU 96
# Procedure: Medium: DMEM/F-12/RPMI 1640 (2:1:1) supplemented with BME amino acids, MEM non essential amino acids, 2.0 mM glutamine, 15 mM HEPES, 2.0 g/L sodium bicarbonate and 0.4 mM ferric citrate.
# Culture mode: 25 cm^2 T-flasks (Supplier: Nunc), culture volume 6.0 ml, placed at 37° C. in an incubator with 5% CO2; starting viable cell density is 3.1×10^5 cells per ml.
# [4] = tested on: Mouse hybridoma CAU 96; remark: listed apart in the source
# Procedure: as §1, §2, §3, §4
# [5] = Table 4, Day 6, supplement 0.2% w/v
# [6] = Table 3, Day 7, supplement 0.2% w/v
# [7] = Table 5, Day 6, supplement 0.2% w/v
# [8] = Table 6, Day 6, supplement 0.1% w/v
# [9] = Table 6, Day 6, supplement 0.2% w/v
# [10] = Table 4, Day 6, supplement 0.1% w/v
compound,measurement,setting,value
"C[C@H](N)C(=O)O [Alanine, reference compound]",Viable cell number % of control,[1],94 % of control
same,Monoclonal antibody,[1]; [5],110 mg/L
same,Viability,[1]; [5],60%
same,Viable cell number,[1]; [5],1030 cells/μL
same,growth stimulating effect on the hybridoma cell line (in words),[1],insignificant
"NCC(=O)O [Glycine, reference compound]",Viable cell number % of control,[1],102 % of control
same,Monoclonal antibody,[1]; [6],160 mg/L
same,Viability,[1]; [6],60%
same,Viable cell number,[1]; [6],1080 cells/μL
same,growth stimulating effect on the hybridoma cell line (in words),[1],does not significantly stimulate cell growth
"N[C@@H](CO)C(=O)O [Serine, reference compound]",Viable cell number % of control,[1],104 % of control
same,Monoclonal antibody,[1]; [7],111 mg/L
same,Viability,[1]; [7],63%
same,Viable cell number,[1]; [7],1190 cells/μL
same,growth stimulating effect on the hybridoma cell line (in words),[1],insignificant
"C[C@H](N)C(=O)N[C@@H](C)C(=O)N[C@@H](C)C(=O)N[C@@H](C)C(=O)O [Tetraalanine, Ala-Ala-Ala-Ala] (H-AAAA-OH; N-terminus and C-terminus assumed)",Viability,[1]; 0.1 % w/v,66%
same,Viability,[1]; 0.2 % w/v,72%
same,"Amino acid concentration, Day 0","[2]; Table 2, culture medium with tetraalanine, day 0",1.84
same,"Amino acid concentration, Day 4","[2]; Table 2, culture medium with tetraalanine, day 4",1.28
same,"Amino acid concentration, Difference","[2]; Table 2, day 4 minus day 0",−0.56
"NCC(=O)NCC(=O)NCC(=O)NCC(=O)O [Tetraglycine, Gly-Gly-Gly-Gly] (H-GGGG-OH; N-terminus and C-terminus assumed)",Viable cell number % of control,[1],176 % of control
same,Viability,[1]; 0.2 % w/v,80%
same,Viability,[3]; 0.1 % w/v,78%
same,Viability,[3]; 0.2 % w/v,77%
same,Viability,[3]; 0.3 % (w/v),80%
same,"Amino acid concentration, Day 0",[4],7.14 mM
same,"Amino acid concentration, Day 4",[4],6.55 mM
"C[C@@H](O)[C@H](N)C(=O)O [Threonine, reference compound]",Viable cell number % of control,[1],97 % of control
same,Monoclonal antibody,[1]; [7],114 mg/L
same,Viability,[1]; [7],59%
same,Viable cell number,[1]; [7],1100 cells/μL
"NCC(=O)NCC(=O)NCC(=O)O [Triglycine, Gly-Gly-Gly] (H-Gly-Gly-Gly-OH)",Viability,[1]; 0.1 % w/v,78%
same,Monoclonal antibody,[1]; [6],160 mg/L
same,Viable cell number,[1]; [6],1660 cells/μL
same,Monoclonal antibody,[1]; [8],98 mg/L
same,Viable cell number,[1]; [8],1350 cells/μL
same,Monoclonal antibody,[1]; [9],89 mg/L
same,Viable cell number,[1]; [9],1300 cells/μL
"NCCC(=O)O [β-alanine, reference compound]",Viable cell number % of control,[1],106 % of control
same,Monoclonal antibody,[1]; [7],105 mg/L
same,Viability,[1]; [7],60%
same,Viable cell number,[1]; [7],1210 cells/μL
same,growth stimulating effect on the hybridoma cell line (in words),[1],insignificant
Ala-Ala-Ala [Trialanine],Monoclonal antibody,[1]; [10],130 mg/L
same,Viability,[1]; [10],69%
same,Viable cell number,[1]; [10],1390 cells/μL
same,Monoclonal antibody,[1]; [5],132 mg/L
same,Viability,[1]; [5],70%
same,Viable cell number,[1]; [5],1420 cells/μL
Diglycine,Viable cell number % of control,[1],114 % of control
same,Monoclonal antibody,[1]; [6],165 mg/L
same,Viability,[1]; [6],70%
same,Viable cell number,[1]; [6],1210 cells/μL
Gly-Arg-Gly,Monoclonal antibody,[1]; [8],106 mg/L
same,Viability,[1]; [8],65%
same,Viable cell number,[1]; [8],1360 cells/μL
same,Monoclonal antibody,[1]; [9],121 mg/L
same,Viability,[1]; [9],66%
same,Viable cell number,[1]; [9],1270 cells/μL
